Experimental data taken from patent publication US20240376099A1, “COMPOUNDS AND COMPOSITIONS AS INHIBITORS OF ENDOSOMAL TOLL-LIKE RECEPTORS” (Novartis AG, priority 2016, published 2024).

Biological target: T1, TLR7 (Homo sapiens, UniProt Q9NYK1)
T1 construct: Fresh blood was collected from normal human donors; endogenous in cells; host or cells: human PBMCs from fresh donor blood
T1 sequence (Q9NYK1 27-1049): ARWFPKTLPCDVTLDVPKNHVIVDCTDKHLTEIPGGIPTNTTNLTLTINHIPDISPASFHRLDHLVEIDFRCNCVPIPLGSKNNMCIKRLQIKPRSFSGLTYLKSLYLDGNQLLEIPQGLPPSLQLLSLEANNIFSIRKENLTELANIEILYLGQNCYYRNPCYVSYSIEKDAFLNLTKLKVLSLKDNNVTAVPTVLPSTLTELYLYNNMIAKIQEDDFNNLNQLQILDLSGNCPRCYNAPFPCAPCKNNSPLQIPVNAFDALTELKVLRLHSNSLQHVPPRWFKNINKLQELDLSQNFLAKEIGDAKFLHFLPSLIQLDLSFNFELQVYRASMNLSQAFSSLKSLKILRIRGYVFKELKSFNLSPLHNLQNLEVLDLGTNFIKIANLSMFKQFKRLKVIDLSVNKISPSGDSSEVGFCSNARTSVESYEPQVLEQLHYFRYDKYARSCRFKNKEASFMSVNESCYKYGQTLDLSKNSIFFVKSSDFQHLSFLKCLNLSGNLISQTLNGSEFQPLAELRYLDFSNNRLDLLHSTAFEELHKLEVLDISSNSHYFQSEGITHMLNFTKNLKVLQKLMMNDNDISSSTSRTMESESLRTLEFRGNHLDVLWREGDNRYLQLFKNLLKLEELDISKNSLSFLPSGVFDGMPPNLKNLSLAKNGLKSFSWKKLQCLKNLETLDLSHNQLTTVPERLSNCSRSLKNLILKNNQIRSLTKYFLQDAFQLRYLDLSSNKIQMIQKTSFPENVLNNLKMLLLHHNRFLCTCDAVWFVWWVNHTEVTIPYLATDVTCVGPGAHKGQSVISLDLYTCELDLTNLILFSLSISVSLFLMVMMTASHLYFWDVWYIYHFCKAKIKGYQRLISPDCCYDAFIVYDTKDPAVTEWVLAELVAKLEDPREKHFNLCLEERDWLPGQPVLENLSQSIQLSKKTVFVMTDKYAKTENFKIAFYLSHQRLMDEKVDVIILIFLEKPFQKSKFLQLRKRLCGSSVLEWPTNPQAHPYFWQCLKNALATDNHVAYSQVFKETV
Test: huPBMC TLR7 Antagonist IFNα Assay
Assay type: cell-based
Settings: human PBMCs stimulated with ssRNA40 10 μg/mL (DOTAP), 14-16 hrs; IFNα2b AlphaLISA read-out
Outline: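 Human PBMCs from fresh donor blood (150,000 cells/well) stimulated 14–16 h at 37 °C with DOTAP-complexed ssRNA40 (final 1 μg/ml for TLR8, 10 μg/mL for TLR7) or ODN2216 (final 0.3 μM, TLR9), 0.25% DMSO, ten-point 1/3 compound dilutions. Supernatant IL-6 read by HTRF (TLR8); IFNα by IFNα2b AlphaLISA (TLR7/TLR9).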

IC50 [nM]	Compound
25	Cc1cc(N2CCc3c(c(C)nn3CC34CCC(N)(CC3)CC4)C2)c2cnn(C)c2n1 [Compound No. 1, 4-((5-(1,6-dimethyl-1H-pyrazolo[3,4-b]pyridin-4-yl)-3-methyl-4,5,6,7-tetrahydro-1H-pyrazolo[4,3-c]pyridin-1-yl)methyl)bicyclo[2.2.2]octan-1-amine]
38	Cc1cc(N2CCc3c(c(C)nn3CC34CCC(N)(CC3)CC4)C2)c2cn[nH]c2n1 [Compound No. 2, 4-((3-methyl-5-(6-methyl-1H-pyrazolo[3,4-b]pyridin-4-yl)-4,5,6,7-tetrahydro-1H-pyrazolo[4,3-c]pyridin-1-yl)methyl)bicyclo[2.2.2]octan-1-amine]
20	Cc1cc(N2CCc3c(c(C)nn3CC34CCC(N(C)C(=O)OC(C)(C)C)(CC3)CC4)C2)c2cnn(C)c2n1 [Compound No. 49, tert-butyl (4-((5-(1,6-dimethyl-1H-pyrazolo[3,4-b]pyridin-4-yl)-3-methyl-4,5,6,7-tetrahydro-1H-pyrazolo[4,3-c]pyridin-1-yl)methyl)bicyclo[2.2.2]octan-1-yl)(methyl)carbamate]
6	CNC12CCC(Cn3nc(C)c4c3CCN(c3cc(C)nc5c3cnn5C)C4)(CC1)CC2 [Compound No. 50, 4-((5-(1,6-dimethyl-1H-pyrazolo[3,4-b]pyridin-4-yl)-3-methyl-4,5,6,7-tetrahydro-1H-pyrazolo[4,3-c]pyridin-1-yl)methyl)-N-methylbicyclo[2.2.2]octan-1-amine]
7	Cc1cc(N2CCc3c(c(C)nn3CC34CCC(NC(=O)OC5(C)CC5)(CC3)CC4)C2)c2cnn(C)c2n1 [Compound No. 51, 1-methylcyclopropyl (4-((5-(1,6-dimethyl-1H-pyrazolo[3,4-b]pyridin-4-yl)-3-methyl-4,5,6,7-tetrahydro-1H-pyrazolo[4,3-c]pyridin-1-yl)methyl)bicyclo[2.2.2]octan-1-yl)carbamate]
843	COc1ccc(Cn2ncc3c(N4CCc5c(c(C)nn5CC56CCC(N)(CC5)CC6)C4)cc(C)nc32)cc1 [Compound No. 53, 4-((5-(1-(4-methoxybenzyl)-6-methyl-1H-pyrazolo[3,4-b]pyridin-4-yl)-3-methyl-4,5,6,7-tetrahydro-1H-pyrazolo[4,3-c]pyridin-1-yl)methyl)bicyclo[2.2.2]octan-1-amine]
3	Cc1cc(N2CCc3c(c(C)nn3CC34CCC(N5CCCC5)(CC3)CC4)C2)c2cnn(C)c2n1 [Compound No. 58, 5-(1,6-dimethyl-1H-pyrazolo[3,4-b]pyridin-4-yl)-3-methyl-1-((4-(pyrrolidin-1-yl)bicyclo[2.2.2]octan-1-yl)methyl)-4,5,6,7-tetrahydro-1H-pyrazolo[4,3-c]pyridine]
4	Cc1cc(N2CCc3c(c(C)nn3CC34CCC(N5CCOCC5)(CC3)CC4)C2)c2cnn(C)c2n1 [Compound No. 59, 4-(4-((5-(1,6-dimethyl-1H-pyrazolo[3,4-b]pyridin-4-yl)-3-methyl-4,5,6,7-tetrahydro-1H-pyrazolo[4,3-c]pyridin-1-yl)methyl)bicyclo[2.2.2]octan-1-yl)morpholine]
9	COCCNC12CCC(Cn3nc(C)c4c3CCN(c3cc(C)nc5c3cnn5C)C4)(CC1)CC2 [Compound No. 69, 4-((5-(1,6-dimethyl-1H-pyrazolo[3,4-b]pyridin-4-yl)-3-methyl-4,5,6,7-tetrahydro-1H-pyrazolo[4,3-c]pyridin-1-yl)methyl)-N-(2-methoxyethyl)bicyclo[2.2.2]octan-1-amine]
10	Cc1cc(N2CCc3c(c(C)nn3CC34CCC(N(C)C5COC5)(CC3)CC4)C2)c2cnn(C)c2n1 [Compound No. 77, N-(4-((5-(1,6-dimethyl-1H-pyrazolo[3,4-b]pyridin-4-yl)-3-methyl-4,5,6,7-tetrahydro-1H-pyrazolo[4,3-c]pyridin-1-yl)methyl)bicyclo[2.2.2]octan-1-yl)-N-methyloxetan-3-amine]
302	Cc1nn(CC23CCC(N)(CC2)CC3)c2c1CN(c1ccnc(-c3ccc(C#N)cc3)c1)CC2 [Compound No. 84, 4-(4-(1-((4-aminobicyclo[2.2.2]octan-1-yl)methyl)-3-methyl-6,7-dihydro-1H-pyrazolo[4,3-c]pyridin-5(4H)-yl)pyridin-2-yl)benzonitrile]
56	Cc1cc(N2CCc3c(c(C)nn3CC34CCC(O)(CC3)CC4)C2)c2cnn(C)c2n1 [compound 46, 4-((5-(1,6-dimethyl-1H-pyrazolo[3,4-b]pyridin-4-yl)-3-methyl-4,5,6,7-tetrahydro-1H-pyrazolo[4,3-c]pyridin-1-yl)methyl)bicyclo[2.2.2]octan-1-ol]
304	Cc1cc(N2CCc3nn(CC45CC(N)(C4)C5)c(C)c3C2)c2cnn(C)c2n1 [compound 52, 3-((5-(1,6-dimethyl-1H-pyrazolo[3,4-b]pyridin-4-yl)-3-methyl-4,5,6,7-tetrahydro-2H-pyrazolo[4,3-c]pyridin-2-yl)methyl)bicyclo[1.1.1]pentan-1-amine]
4	Cc1cc(N2CCc3c(c(C)nn3CC34CCC(NC5CCC5)(CC3)CC4)C2)c2cnn(C)c2n1 [compound 54, N-cyclobutyl-4-((5-(1,6-dimethyl-1H-pyrazolo[3,4-b]pyridin-4-yl)-3-methyl-4,5,6,7-tetrahydro-1H-pyrazolo[4,3-c]pyridin-1-yl)methyl)bicyclo[2.2.2]octan-1-amine]
5	Cc1cc(N2CCc3c(c(C)nn3CC34CCC(NC(C)C)(CC3)CC4)C2)c2cnn(C)c2n1 [compound 55, 4-((5-(1,6-dimethyl-1H-pyrazolo[3,4-b]pyridin-4-yl)-3-methyl-4,5,6,7-tetrahydro-1H-pyrazolo[4,3-c]pyridin-1-yl)methyl)-N-isopropylbicyclo[2.2.]octan-1-amine]
7	Cc1cc(N2CCc3c(c(C)nn3CC34CCC(NC(C)CO)(CC3)CC4)C2)c2cnn(C)c2n1 (stereo not drawn) [compound 56, 2-((4-((5-(1,6-dimethyl-1H-pyrazolo[3,4-b]pyridin-4-yl)-3-methyl-4,5,6,7-tetrahydro-1H-pyrazolo[4,3-c]pyridin-1-yl)methyl)bicyclo[2.2.2]octan-1-yl)amino)propan-1-ol]
7	CCNC12CCC(Cn3nc(C)c4c3CCN(c3cc(C)nc5c3cnn5C)C4)(CC1)CC2 [compound 57, 4-((5-(1,6-dimethyl-1H-pyrazolo[3,4-b]pyridin-4-yl)-3-methyl-4,5,6,7-tetrahydro-1H-pyrazolo[4,3-c]pyridin-1-yl)methyl)-N-ethylbicyclo[2.2.]octan-1-amine]
4	Cc1cc(N2CCc3c(c(C)nn3CC34CCC(N5CCC5)(CC3)CC4)C2)c2cnn(C)c2n1 [compound 64, 1-((4-(azetidin-1-yl)bicyclo[2.2.2]octan-1-yl)methyl)-5-(1,6-dimethyl-1H-pyrazolo[3,4-b]pyridin-4-yl)-3-methyl-4,5,6,7-tetrahydro-1H-pyrazolo[4,3-c]pyridine]
5	CCOCCNC12CCC(Cn3nc(C)c4c3CCN(c3cc(C)nc5c3cnn5C)C4)(CC1)CC2 [compound 71, 4-((5-(1,6-dimethyl-1H-pyrazolo[3,4-b]pyridin-4-yl)-3-methyl-4,5,6,7-tetrahydro-1H-pyrazolo[4,3-c]pyridin-1-yl)methyl)-N-(2-ethoxyethyl)bicyclo[2.2.2]octan-1-amine]
37	CCOCCN(CCOCC)C12CCC(Cn3nc(C)c4c3CCN(c3cc(C)nc5c3cnn5C)C4)(CC1)CC2 [compound 72, 4-((5-(1,6-dimethyl-1H-pyrazolo[3,4-b]pyridin-4-yl)-3-methyl-4,5,6,7-tetrahydro-1H-pyrazolo[4,3-c]pyridin-1-yl)methyl)-N,N-bis(2-ethoxyethyl)bicyclo[2.2.2]octan-1-amine]
7	Cc1cc(N2CCc3c(c(C)nn3CC34CCC(N5C[C@@H](O)[C@@H](O)C5)(CC3)CC4)C2)c2cnn(C)c2n1 [compound 74, (3S,4R)-1-(4-((5-(1,6-dimethyl-1H-pyrazolo[3,4-b]pyridin-4-yl)-3-methyl-4,5,6,7-tetrahydro-1H-pyrazolo[4,3-c]pyridin-1-yl)methyl)bicyclo[2.2.2]octan-1-yl)pyrrolidine-3,4-diol]
